Reference: US20030228621A1, “Common ligand universal enzyme assay and compositions for use therein” (priority 2002, published 2003)

Key:
[1] = target: dihydrodipicolinate reductase (DHPR) (Escherichia coli, UniProt P04036); experiment: Fluorescence polarization binding of FITC-NADH titrated with dihydrodipicolinate reductase (FIG. 4); details: 25 nM FITC-NADH, 20 mM Potassium Phosphate, pH 7.4, or 20 mM HEPES, pH 7.8, fit of mP vs Log(DHPR)
Method: This example illustrates the determination of the concentration of FITC-NADH that would provide the best signal to noise ratio for fluorescence polarization assay. FITC-NADH was dissolved in 10 mM TAPS buffer with 5% NaHCO3, pH=8. The final concentration of FITC-NADH was 150 μM. In later experiments 150 μM FITC-NADH was diluted to the desired concentration in 20 mM Potassium Phosphate buffer, pH=7.4. Fluorescence polarization was monitored using a Beacon 2000 Variable Temperature Fluorescence Polarization System (PanVera Corporation, Madison, Wis.) and an LJL Analyst HT 96-384 (Molecular Devices Corporation, Sunnyvale, Calif.). The concentration of FITC-NADH as fluorescent tracer was selected by measuring fluorescence polarization of varying concentrations of FITC-NADH in 10 mM Potassium Phosphate buffer, pH=7.4. The concentration range was 0.15 nM—15 nM. For the best signal to noise ratio regarding both the horizontal and vertical intensities that contribute to the fluorescence polarization value, a concentration of 25 nM was chosen for FITC-NADH in the majority of experiments.
This example illustrates the binding characteristics of FITC-NADH to various dehydrogenases. […] An individual blank of protein in buffer was measured for each point. […] FITC-NADH was added to the test tubes and the fluorescence polarization measurement was taken. […]

[2] = Stability of dehydrogenases and FITC-NADH by fluorescence polarization over time; format: physicochemical; details: 1.5 nM FITC-NADH with EACPR, GAPDH or DHPR
Method: The fluorescence polarization of solutions of 10 μM enoyl ACP reductase, 5.6 μM glyceraldehyde-3-phosphate dehydrogenase and 10 μM dihydrodipicolinate reductase with 1.5 nM FITC-NADH, was measured. The concentration of the dehydrogenase was such that the solution of dehydrogenase and FITC-NADH would give the polarization mP value of 70-80. The blank was a solution of protein in buffer. Fluorescence polarization measurements were taken for 2 hours at 5 minute intervals.

Sequence of dihydrodipicolinate reductase (DHPR) (P04036 whole entry): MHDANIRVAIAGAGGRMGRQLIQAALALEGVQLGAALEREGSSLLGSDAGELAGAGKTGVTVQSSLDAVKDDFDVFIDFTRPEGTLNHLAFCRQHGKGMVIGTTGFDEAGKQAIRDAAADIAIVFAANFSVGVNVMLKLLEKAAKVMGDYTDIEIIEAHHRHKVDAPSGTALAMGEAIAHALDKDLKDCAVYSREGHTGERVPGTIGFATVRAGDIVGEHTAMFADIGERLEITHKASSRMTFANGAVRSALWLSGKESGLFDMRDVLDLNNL

For NC(=O)C1=CN(C2OC(COP(=O)(O)OP(=O)(O)OCC3OC(n4cnc5c(NCCNC(=S)Nc6ccc(-c7c8ccc(=O)cc-8oc8cc(O)ccc78)c(C(=O)O)c6)ncnc54)C(O)C3O)C(O)C2O)C=CC1 (centres unmarked) [FITC-NADH, fluorescein isothiocyano-N^6-(2-aminoethyl)-NADH], the Kd [1] was 1400 ± 100 nM and the “time stable in fluorescence polarization assay” value [2] was 100 min.
